Experimental data taken from patent US20040071768A1, “Compositions and methods for treating cancer” (Inex Pharmaceuticals Corporation, priority 1999, published 2004).
Read-outs that look alike come from different tables or passages of the source.

What was measured:
MX-1 breast xenografts = tested on: MX-1 breast xenografts
Procedure: (§1) Female NCr nude mice were injected intravenously (q7dx3) via the lateral tail vein on days indicated by an asterisk (*). […] Drug-to-lipid ratio was 0.3/1 (w/w). Data points represent median tumor volume (n=6).
(§2) The anti-tumor activity of multiple (q7d3) dose schedules of liposomal vinorelbine was evaluated in several human xenograft tumor models. The goal of this series of studies was to identify the benefits of encapsulation by evaluating a series of doses and determining the therapeutic index in several xenograft models. Models were selected based on the following criteria: (1) activity in the single dose studies, (2) a comprehensive literature review of vinca alkaloid efficacy, (3) a desire to include at least 2-3 models that represent the clinical use of vinorelbine, and (4) a desire to include models with a range of sensitivity to vinorelbine so that improvements resulting from the use of the liposome formulation might be identified. Based on these criteria, MX-1 and MDA-MB-435 breast models, the NCl-H460 NSCLC model and the HT-29 and DLD-1 colon models were chosen.
(§3) Therapeutic index (TI) is a parameter that quantifies the “safety factor” of a particular therapy. TI is a ratio of a toxicity parameter and a biological activity parameter. Therefore, a higher ratio represents a greater potential margin of safety. For these studies, TI is defined as follows: […]
(§4) The minimal effective dose (MED) was set according to NCl activity criteria as the dose resulting in an optimal % T/C of 40. This information was derived from Table 7.

HT29 colon xenografts = experiment: Multiple dose (q7dx3) anti-tumor activity, HT29 colon xenograft; settings: HT-29; for TF (tumor free animals at the end of study): n=6
Procedure: as §1, §2, §3, §4

[1] = cited from earlier work
[2] = animal studies and clinical trials; cited from earlier work
DLD-1 colon xenografts = tested on: DLD-1 colon xenografts
Procedure: Female NCr nude mice were injected intravenously (q7dx3) via the lateral tail vein on days indicated by an asterisk (*). […] Irinotecan (⋄) was prepared in saline and injected iv (q4dx3) at a dose of 90 mg/kg/dose. Drug-to-lipid ratio was 0.3/1 (w/w). Data points represent median tumor volume (n=6).
as §2, §3, §4

PC3 prostate xenografts = experiment: Single dose anti-tumor activity, PC3 prostate xenograft; format: in vivo; settings: PC-3
Procedure: Male NCr nude mice were injected intravenously via the lateral tail vein on day 9 post-tumor-implantation with saline (♦), NVB at 45.0 mg/kg (◯) and 34.0 mg/kg (□), or NVB-TCS at 15.0 mg/kg (●) and 11.0 mg/kg (▪) at a drug-to-lipid ratio of 0.3:1 (w/w). The arrow on the x-axis denotes the day of drug administration. Data points represent mean±SEM (n=10).
Vinorelbine is used clinically in the treatment of advanced NSCLC and metastatic breast cancer.
Tumor models investigated included RXF393 (renal), MX-1 (breast), LX-1 (small cell lung cancer), PC-3 (prostate), and HT29 (colon). These models were known to be sensitive to vinorelbine. Tumor fragments were implanted subcutaneously in the flank of NCr nu/nu mice. […] Animal weights and tumor size were determined twice weekly.

[3] = Vinorelbine tolerability, multiple dosing (q7d x 3), nude mice; format: in vivo, NCr nu/nu mice; settings: Nudes
Procedure: Single and multiple (q7dx3) dose MTD studies were performed in tumor-bearing and non-tumor bearing NCr nu/nu mice, as well as healthy, outbred ICR mice.

[4] = tested on: NCl H460 non small cell lung xenografts; experiment: Multiple dose (q7dx3) anti-tumor activity, NCl H460 non small cell lung xenograft
Procedure: Female NCr nude mice were injected intravenously (q7dx3, beginning day 7) via the lateral tail vein. […] Mitomycin C (⋄) was prepared in saline and injected iv (q4dx3) at a dose of 3 mg/kg/dose. Drug-to-lipid ratio was 0.3/1 (w/w). Data points represent median tumor volume (n=6).
as §2, §3, §4

[5] = clinical hematological toxicity

CCC1=C[C@@H]2CN(C1)Cc1c([nH]c3ccccc13)[C@@](C(=O)OC)(c1cc3c(cc1OC)N(C)[C@H]1[C@@](O)(C(=O)OC)[C@H](OC(C)=O)[C@]4(CC)C=CCN5CC[C@]31[C@@H]54)C2 [VRL, 5′-noranhydrovinblastine]
% T/C (optimal % T/C following final treatment) (MX-1 breast xenografts; 5 mg/kg i.v. q7dx3): 100% | DRD (drug related deaths, n = 6) (MX-1 breast xenografts; 5 mg/kg i.v. q7dx3): 0 | NCI Score (MX-1 breast xenografts; 5 mg/kg i.v. q7dx3): 0 | T-C (tumor growth delay to 1000 mm^3) (MX-1 breast xenografts; 5 mg/kg i.v. q7dx3): 0 | TF (tumor free animals at the end of study) (MX-1 breast xenografts; 5 mg/kg i.v. q7dx3, n=6): 0 | % T/C (optimal % T/C following final treatment) (MX-1 breast xenografts; 10 mg/kg i.v. q7dx3): 38% | DRD (drug related deaths, n = 6) (MX-1 breast xenografts; 10 mg/kg i.v. q7dx3): 0 | NCI Score (MX-1 breast xenografts; 10 mg/kg i.v. q7dx3): 1 | T-C (tumor growth delay to 1000 mm^3) (MX-1 breast xenografts; 10 mg/kg i.v. q7dx3): 7.3 | TF (tumor free animals at the end of study) (MX-1 breast xenografts; 10 mg/kg i.v. q7dx3, n=6): 0 | % T/C (optimal % T/C following final treatment) (MX-1 breast xenografts; 20 mg/kg i.v. q7dx3): −28% | DRD (drug related deaths, n = 6) (MX-1 breast xenografts; 20 mg/kg i.v. q7dx3): 0 | NCI Score (MX-1 breast xenografts; 20 mg/kg i.v. q7dx3): 3 | T-C (tumor growth delay to 1000 mm^3) (MX-1 breast xenografts; 20 mg/kg i.v. q7dx3): 28.5 | TF (tumor free animals at the end of study) (MX-1 breast xenografts; 20 mg/kg i.v. q7dx3, n=6): 0 | % T/C (optimal % T/C following final treatment) (HT29 colon xenografts; 5 mg/kg i.v. q7dx3): 67% | DRD (drug related deaths, n = 6) (HT29 colon xenografts; 5 mg/kg i.v. q7dx3): 0 | NCI Score (HT29 colon xenografts; 5 mg/kg i.v. q7dx3): 0 | T-C (tumor growth delay to 1000 mm^3) (HT29 colon xenografts; 5 mg/kg i.v. q7dx3): 1.32 | TF (tumor free animals at the end of study) (HT29 colon xenografts; 5 mg/kg i.v. q7dx3): 0 | % T/C (optimal % T/C following final treatment) (HT29 colon xenografts; 10 mg/kg i.v. q7dx3): 5% | DRD (drug related deaths, n = 6) (HT29 colon xenografts; 10 mg/kg i.v. q7dx3): 0 | NCI Score (HT29 colon xenografts; 10 mg/kg i.v. q7dx3): 1 | T-C (tumor growth delay to 1000 mm^3) (HT29 colon xenografts; 10 mg/kg i.v. q7dx3): 11.9 | TF (tumor free animals at the end of study) (HT29 colon xenografts; 10 mg/kg i.v. q7dx3): 0 | % T/C (optimal % T/C following final treatment) (HT29 colon xenografts; 20 mg/kg i.v. q7dx3): −65% | DRD (drug related deaths, n = 6) (HT29 colon xenografts; 20 mg/kg i.v. q7dx3): 0 | NCI Score (HT29 colon xenografts; 20 mg/kg i.v. q7dx3): 3 | T-C (tumor growth delay to 1000 mm^3) (HT29 colon xenografts; 20 mg/kg i.v. q7dx3): 29.3 | TF (tumor free animals at the end of study) (HT29 colon xenografts; 20 mg/kg i.v. q7dx3): 1 | anemia [1, 5]: 83% | leukopenia [1, 5]: 92% | thrombocytopenia [1, 5]: 5% | Peripheral neuropathy ([1]; clinical): 25% | phlebitis ([1]; clinical): 7% | drug excreted in feces [2]: 40-50% | drug excreted in urine [2]: ~20% | % T/C (optimal % T/C following final treatment) (DLD-1 colon xenografts; 5 mg/kg i.v. q7dx3): 88% | DRD (drug related deaths, n = 6) (DLD-1 colon xenografts; 5 mg/kg i.v. q7dx3): 0 | NCI Score (DLD-1 colon xenografts; 5 mg/kg i.v. q7dx3): 0 | T-C (tumor growth delay to 1000 mm^3) (DLD-1 colon xenografts; 5 mg/kg i.v. q7dx3): 0.0 | TF (tumor free animals at the end of study) (DLD-1 colon xenografts; 5 mg/kg i.v. q7dx3, n=6): 0 | % T/C (optimal % T/C following final treatment) (DLD-1 colon xenografts; 10 mg/kg i.v. q7dx3): 58% | DRD (drug related deaths, n = 6) (DLD-1 colon xenografts; 10 mg/kg i.v. q7dx3): 0 | NCI Score (DLD-1 colon xenografts; 10 mg/kg i.v. q7dx3): 0 | T-C (tumor growth delay to 1000 mm^3) (DLD-1 colon xenografts; 10 mg/kg i.v. q7dx3): 4.7 | TF (tumor free animals at the end of study) (DLD-1 colon xenografts; 10 mg/kg i.v. q7dx3, n=6): 0 | % T/C (optimal % T/C following final treatment) (DLD-1 colon xenografts; 20 mg/kg i.v. q7dx3): −36% | DRD (drug related deaths, n = 6) (DLD-1 colon xenografts; 20 mg/kg i.v. q7dx3): 0 | NCI Score (DLD-1 colon xenografts; 20 mg/kg i.v. q7dx3): 2 | T-C (tumor growth delay to 1000 mm^3) (DLD-1 colon xenografts; 20 mg/kg i.v. q7dx3): 19.7 | TF (tumor free animals at the end of study) (DLD-1 colon xenografts; 20 mg/kg i.v. q7dx3, n=6): 0 | % T/C (optimal % T/C following final treatment) (DLD-1 colon xenografts; 30 mg/kg i.v. q7dx3): −100% | DRD (drug related deaths, n = 6) (DLD-1 colon xenografts; 30 mg/kg i.v. q7dx3): 2 | NCI Score (DLD-1 colon xenografts; 30 mg/kg i.v. q7dx3): 3 | T-C (tumor growth delay to 1000 mm^3) (DLD-1 colon xenografts; 30 mg/kg i.v. q7dx3): 26.4 | TF (tumor free animals at the end of study) (DLD-1 colon xenografts; 30 mg/kg i.v. q7dx3, n=6): 0 | % T/C (optimal % T/C following final treatment) (PC3 prostate xenografts; single i.v. dose 34 mg/kg): −3% | DRD (drug related deaths) (PC3 prostate xenografts; single i.v. dose 34 mg/kg): 2/10 | MWL (maximum mean weight loss per treatment group) (PC3 prostate xenografts; single i.v. dose 34 mg/kg): −18.7 | NCI Score (PC3 prostate xenografts; single i.v. dose 34 mg/kg): 2 | T-C (tumor growth delay to 1000 mm^3) (PC3 prostate xenografts; single i.v. dose 34 mg/kg): 34 | TF (tumor free animals at the end of study) (PC3 prostate xenografts; single i.v. dose 34 mg/kg): 1/8 | % T/C (optimal % T/C following final treatment) (PC3 prostate xenografts; single i.v. dose 45 mg/kg): Toxic | DRD (drug related deaths) (PC3 prostate xenografts; single i.v. dose 45 mg/kg): 5/10 | MWL (maximum mean weight loss per treatment group) (PC3 prostate xenografts; single i.v. dose 45 mg/kg): −25.4 | TF (tumor free animals at the end of study) (PC3 prostate xenografts; single i.v. dose 45 mg/kg): 4/5 | DRD ([3]; 5 mg/kg q7d x 3): 0/30 | DRD ([3]; 10 mg/kg q7d x 3): 0/37 | DRD ([3]; 20 mg/kg q7d x 3): 2/37 | DRD ([3]; 25 mg/kg q7d x 3): 0/7 | DRD ([3]; 30 mg/kg q7d x 3): 6/18 | % T/C (optimal % T/C following final treatment) ([4]; 5 mg/kg i.v. q7dx3): 63% | DRD (drug related deaths, n = 6) ([4]; 5 mg/kg i.v. q7dx3): 0 | NCI Score ([4]; 5 mg/kg i.v. q7dx3): 0 | T-C (tumor growth delay to 1000 mm^3) ([4]; 5 mg/kg i.v. q7dx3): 2.8 | TF (tumor free animals at the end of study) ([4]; 5 mg/kg i.v. q7dx3, n=6): 0 | % T/C (optimal % T/C following final treatment) ([4]; 10 mg/kg i.v. q7dx3): 45% | DRD (drug related deaths, n = 6) ([4]; 10 mg/kg i.v. q7dx3): 0 | NCI Score ([4]; 10 mg/kg i.v. q7dx3): 0 | T-C (tumor growth delay to 1000 mm^3) ([4]; 10 mg/kg i.v. q7dx3): 6.2 | TF (tumor free animals at the end of study) ([4]; 10 mg/kg i.v. q7dx3, n=6): 0 | % T/C (optimal % T/C following final treatment) ([4]; 20 mg/kg i.v. q7dx3): 30% | DRD (drug related deaths, n = 6) ([4]; 20 mg/kg i.v. q7dx3): 0 | NCI Score ([4]; 20 mg/kg i.v. q7dx3): 1 | T-C (tumor growth delay to 1000 mm^3) ([4]; 20 mg/kg i.v. q7dx3): 9.1 | TF (tumor free animals at the end of study) ([4]; 20 mg/kg i.v. q7dx3, n=6): 0 | % T/C (optimal % T/C following final treatment) ([4]; 30 mg/kg i.v. q7dx3): 10% | DRD (drug related deaths, n = 6) ([4]; 30 mg/kg i.v. q7dx3): 2 | NCI Score ([4]; 30 mg/kg i.v. q7dx3): 1 | T-C (tumor growth delay to 1000 mm^3) ([4]; 30 mg/kg i.v. q7dx3): 19.1 | TF (tumor free animals at the end of study) ([4]; 30 mg/kg i.v. q7dx3, n=6): 0
